# Data reported in patent US20210238192A1, “VASCULAR ADHESION PROTEIN-1 (VAP-1) MODULATORS AND THERAPEUTIC USES THEREOF” (Blade Therapeutics, Inc., priority 2018, published 2021).
# Structures can show the parent of a compound that is named as a salt.
# Assays:
# Type in all cases: biochemical
# Human DAO = molecular target: T1, Human DAO (Homo sapiens, UniProt P19801); test: DAO inhibition (Amplex Red continuous fluorescence assay); conditions: 30 min pre-incubation at room temp; substrate histamine; read-out: Human DAO IC50
# T1 sequence (P19801 20-751): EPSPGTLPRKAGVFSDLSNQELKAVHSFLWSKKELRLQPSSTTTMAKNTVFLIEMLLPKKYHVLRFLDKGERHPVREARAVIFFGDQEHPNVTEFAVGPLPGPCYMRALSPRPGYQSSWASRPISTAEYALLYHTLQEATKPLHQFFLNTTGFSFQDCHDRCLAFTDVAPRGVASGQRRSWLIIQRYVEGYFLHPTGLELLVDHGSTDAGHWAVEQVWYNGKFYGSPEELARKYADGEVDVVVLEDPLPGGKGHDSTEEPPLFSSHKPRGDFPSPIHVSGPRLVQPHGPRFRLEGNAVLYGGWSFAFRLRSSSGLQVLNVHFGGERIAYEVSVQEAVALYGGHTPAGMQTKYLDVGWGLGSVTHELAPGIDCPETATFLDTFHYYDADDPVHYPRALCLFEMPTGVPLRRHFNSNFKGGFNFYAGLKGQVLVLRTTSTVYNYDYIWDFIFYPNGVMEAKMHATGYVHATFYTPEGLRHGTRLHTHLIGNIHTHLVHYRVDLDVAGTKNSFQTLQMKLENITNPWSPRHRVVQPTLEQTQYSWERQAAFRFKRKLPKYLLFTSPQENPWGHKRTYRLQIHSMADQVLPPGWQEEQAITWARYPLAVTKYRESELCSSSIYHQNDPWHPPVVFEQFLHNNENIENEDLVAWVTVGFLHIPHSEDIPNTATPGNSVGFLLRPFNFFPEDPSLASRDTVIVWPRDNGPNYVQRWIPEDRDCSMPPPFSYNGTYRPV
# Method in brief: (§1)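 Continuous Amplex Red/HRP fluorescence read of H2O2 (ex/em 510/565 nm, 5 min). Substrates and buffers: VAP-1 benzylamine, […] sodium phosphate pH 7.4, 30 min 37° C preincubation; MAO-A tyramine and MAO-B benzylamine, same buffer, room temp; DAO histamine, 50 mM HEPES pH 7.5, room temp. IC50 from 4-parameter fit of rates.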
# Human VAP-1 = molecular target: T2, Human VAP-1 (Homo sapiens, UniProt Q16853); test: VAP-1 inhibition assay (Amplex Red continuous fluorescence assay); conditions: 30 min pre-incubation at 37° C.; substrate benzylamine; read-out: Human VAP-1 IC50
# T2 sequence (Q16853 1-763): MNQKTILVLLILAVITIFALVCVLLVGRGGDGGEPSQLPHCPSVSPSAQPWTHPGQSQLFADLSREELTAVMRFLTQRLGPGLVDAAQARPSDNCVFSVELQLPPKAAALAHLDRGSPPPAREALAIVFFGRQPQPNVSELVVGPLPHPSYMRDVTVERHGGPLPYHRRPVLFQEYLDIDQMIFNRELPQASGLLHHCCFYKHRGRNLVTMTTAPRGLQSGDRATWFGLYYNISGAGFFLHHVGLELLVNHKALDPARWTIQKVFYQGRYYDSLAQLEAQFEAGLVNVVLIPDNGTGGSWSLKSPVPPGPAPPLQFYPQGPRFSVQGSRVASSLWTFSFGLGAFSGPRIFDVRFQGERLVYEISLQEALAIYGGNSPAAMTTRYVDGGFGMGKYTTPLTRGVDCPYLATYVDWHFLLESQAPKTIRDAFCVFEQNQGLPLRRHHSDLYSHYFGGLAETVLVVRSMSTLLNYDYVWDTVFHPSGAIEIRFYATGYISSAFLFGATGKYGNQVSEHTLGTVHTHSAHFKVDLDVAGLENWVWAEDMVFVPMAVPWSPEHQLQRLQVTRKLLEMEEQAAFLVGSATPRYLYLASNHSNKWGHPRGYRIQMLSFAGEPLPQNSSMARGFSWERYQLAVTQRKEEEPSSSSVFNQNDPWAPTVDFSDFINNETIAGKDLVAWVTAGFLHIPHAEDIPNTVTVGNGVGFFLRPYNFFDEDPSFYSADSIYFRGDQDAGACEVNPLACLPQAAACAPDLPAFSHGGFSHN
# Method in brief: as §1
# Human MAO-B = molecular target: T3, Human MAO-B (Homo sapiens, UniProt P27338); test: MAO-B inhibition (Amplex Red continuous fluorescence assay); conditions: 30 min pre-incubation at room temp; substrate benzylamine; read-out: Human MAO-B IC50
# T3 sequence (P27338 1-520): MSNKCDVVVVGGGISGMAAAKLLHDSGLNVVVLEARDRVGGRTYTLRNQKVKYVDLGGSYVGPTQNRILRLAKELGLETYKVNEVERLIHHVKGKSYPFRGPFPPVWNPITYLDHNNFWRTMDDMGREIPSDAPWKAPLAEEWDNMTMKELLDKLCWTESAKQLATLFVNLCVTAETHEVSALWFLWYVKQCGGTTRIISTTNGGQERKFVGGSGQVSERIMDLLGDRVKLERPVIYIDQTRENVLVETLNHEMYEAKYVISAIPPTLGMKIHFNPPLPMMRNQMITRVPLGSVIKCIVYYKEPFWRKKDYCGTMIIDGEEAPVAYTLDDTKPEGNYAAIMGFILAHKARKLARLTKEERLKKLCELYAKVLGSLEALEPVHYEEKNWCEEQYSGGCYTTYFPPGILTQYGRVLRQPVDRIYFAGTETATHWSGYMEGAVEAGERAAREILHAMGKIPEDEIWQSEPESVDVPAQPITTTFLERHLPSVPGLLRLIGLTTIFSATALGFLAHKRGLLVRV
# Method in brief: as §1
# Human MAO-A = molecular target: T4, Human MAO-A (Homo sapiens, UniProt P21397); test: MAO-A inhibition (Amplex Red continuous fluorescence assay); conditions: 30 min pre-incubation at room temp; substrate tyramine; read-out: Human MAO-A IC50
# T4 sequence (P21397 1-527): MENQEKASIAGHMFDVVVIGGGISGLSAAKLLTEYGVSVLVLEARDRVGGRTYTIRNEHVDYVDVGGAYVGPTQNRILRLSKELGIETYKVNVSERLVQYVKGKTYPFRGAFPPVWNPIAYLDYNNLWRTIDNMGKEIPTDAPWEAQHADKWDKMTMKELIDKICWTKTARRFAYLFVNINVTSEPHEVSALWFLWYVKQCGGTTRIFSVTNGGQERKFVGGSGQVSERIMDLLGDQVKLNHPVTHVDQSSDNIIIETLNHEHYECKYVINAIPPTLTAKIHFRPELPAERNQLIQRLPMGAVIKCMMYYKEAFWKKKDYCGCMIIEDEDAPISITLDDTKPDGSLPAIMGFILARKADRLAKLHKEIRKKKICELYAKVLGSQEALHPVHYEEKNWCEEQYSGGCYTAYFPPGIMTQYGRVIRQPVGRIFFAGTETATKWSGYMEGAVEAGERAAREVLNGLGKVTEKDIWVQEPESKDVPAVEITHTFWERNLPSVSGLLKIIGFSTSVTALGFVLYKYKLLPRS
# Method in brief: as §1
IC50 (Human DAO) [µM],IC50 (Human VAP-1) [µM],IC50 (Human MAO-B) [µM],IC50 (Human MAO-A) [µM],SMILES
< 3,< 3,< 3,3 to 10,"NC/C(=C/F)COc1ccc(-c2ncco2)cc1 [Compound 53, (Z)-3-fluoro-2-((4-(oxazol-2-yl)phenoxy)methyl)prop-2-en-1-amine hydrochloride]"
< 3,< 3,< 3,3 to 10,"Cn1ccc(-c2ccc(OC/C(=C\F)CN)cc2)n1 [Compound 54, (Z)-3-fluoro-2-((4-(1-methyl-1H-pyrazol-3-yl)phenoxy)methyl)prop-2-en-1-amine hydrochloride]"
< 3,< 3,3 to 10,< 3,"NC/C(=C\F)Cn1ncc(-c2ccc(O)cc2)n1 [Compound 57, (E)-4-(2-(2-(aminomethyl)-3-fluoroalkyl)-2H-1,2,3-triazol-4-yl)phenol hydrochloride]"
< 3,< 3,< 3,< 3,"NC/C(=C/F)Cn1ncc(-c2ccc(O)cc2)n1 [Compound 58, (Z)-4-(2-(2-(aminomethyl)-3-fluoroalkyl)-2H-1,2,3-triazol-4-yl)phenol hydrochloride]"
> 10,< 3,< 3,> 10,"CC(C)(C)NC(=O)c1ccc2c(ccn2C/C(=C/F)CN)c1 [Compound 59, (E)-1-(2-(aminomethyl)-3-fluoroalkyl)-N-(tert-butyl)-1H-indole-5-carboxamide]"
< 3,< 3,< 3,< 3,NCC(=CF)COc1ccc(-c2cnn[nH]2)cc1 [Compound 60]
< 3,< 3,> 10,> 10,"NC/C(=C\F)COc1ccc(C2=NCCN2)cc1 [Compound 61, (E)-2-((4-(4,5-dihydro-1H-imidazol-2-yl)phenoxy)methyl)-3-fluoroprop-2-en-1-amine]"
< 3,< 3,> 10,> 10,"NC/C(=C\F)CN1CCc2ccccc21 [Compound 62, (E)-3-fluoro-2-(indolin-1-ylmethyl)prop-2-en-1-amine hydrochloride]"
< 3,< 3,> 10,> 10,"NC/C(=C/F)COc1ccc(-c2ncc[nH]2)cc1 [Compound 63, (Z)-2-((4-(1H-imidazol-2-yl)phenoxy)methyl)-3-fluoroprop-2-en-1-amine]"
< 3,< 3,< 3,3 to 10,"NC/C(=C\F)COc1ccc(-c2ncn[nH]2)cc1 [Compound 64, (E)-2-((4-(1H-1,2,4-triazol-5-yl)phenoxy)methyl)-3-fluoroprop-2-en-1-amine]"
< 3,< 3,3 to 10,3 to 10,"NC/C(=C\F)COC(=O)Nc1ccccc1 [Compound 65, (E)-2-(aminomethyl)-3-fluoroalkyl phenylcarbamate]"
> 10,< 3,> 10,> 10,"CCNC(=O)N(C)c1ccc(NC/C(=C/F)CN)cc1 [Compound 66, (E)-1-(4-((2-(aminomethyl)-3-fluoroalkyl)amino)phenyl)-3-ethyl-1-methylurea]"
3 to 10,< 3,3 to 10,> 10,"CCNC(=O)N(C)c1ccc(NC/C(=C\F)CN)cc1 [Compound 67, (Z)-1-(4-((2-(aminomethyl)-3-fluoroalkyl)amino)phenyl)-3-ethyl-1-methylurea]"
< 3,< 3,< 3,< 3,"NC/C(=C/F)COC(=O)Nc1ccccc1 [Compound 68, (Z)-2-(aminomethyl)-3-fluoroalkyl phenylcarbamate]"
> 10,< 3,< 3,> 10,"CC(C)(C)NC(=O)c1cccc2c1ccn2CC(=CF)CN [Compound 69, 1-(2-(aminomethyl)-3-fluoroalkyl)-N-(tert-butyl)-1H-indole-4-carboxamide]"
3 to 10,< 3,> 10,< 3,NC/C(=C\F)CNC(=O)Nc1ccccc1 [Compound 71]
< 3,< 3,> 10,< 3,NC/C(=C/F)CNC(=O)Nc1ccccc1 [Compound 72]
< 3,< 3,> 10,> 10,NC/C(=C\F)COc1ccc(C(=O)NCCOCCOCCOCCOCCOCCOCCOCCOCCOCCOCCOCCNC(=O)CCCCC2SCC3NC(=O)NC32)cc1 (stereo not shown) [Compound 78]
< 3,< 3,3 to 10,> 10,NC/C(=C\F)COc1cnc(N2CC[C@H](O)C2)nc1 [Compound 79]

SMILES,IC50 (Human DAO) [µM],IC50 (Human VAP-1) [µM],IC50 (Human MAO-B) [µM],IC50 (Human MAO-A) [µM]
"CCNC(=O)Oc1ccc(OC/C(=C/F)CN)cc1 [Compound 55, (E)-4-((2-(aminomethyl)-3-fluoroalkyl)oxy)phenyl ethylcarbamate]",> 10,< 3,< 3,< 3
"CCNC(=O)Oc1ccc(OC/C(=C\F)CN)cc1 [Compound 56, (Z)-4-((2-(aminomethyl)-3-fluoroalkyl)oxy)phenyl ethylcarbamate]",< 3,< 3,< 3,< 3
"CC(C)(C)NC(=O)c1cn(CC(=CF)CN)c2ccccc12 [Compound 70, 1-(2-(aminomethyl)-3-fluoroalkyl)-N-(tert-butyl)-1H-indole-3-carboxamide]",> 10,< 3,> 10,< 3
